# Measurements reported in PubChem BioAssay AID270 (DTP/NCI, 2004).
# “And” between values parts separate entries of the source, which are not always exact repeats. Equal values may be shown once. Inconclusive results are not listed.
# System: BDF1 mice, s.c. Lewis lung carcinoma, T/C %
# Assay: NCI In Vivo Anticancer Drug Screen. Data for tumor model Lewis Lung Carcinoma (subcutaneous) in B6D2F1 (BDF1) mice
# Outline: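 Transplanted tumors grown in mice; compound vs vehicle dosing; endpoint survival or tumor size; ratio T/C.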
# [1] = endpoint: mean tumor weight, dose: 100.0 mg/kg/injection, schedule: Q01DX011 (ip), vehicle: carboxymethylcellulose (CMC), higher = larger tumour
# [2] = endpoint: mean tumor weight, dose: 200.0 mg/kg/injection, schedule: Q01DX011 (ip), vehicle: carboxymethylcellulose (CMC), higher = larger tumour
# [3] = endpoint: mean tumor weight, dose: 50.0 mg/kg/injection, schedule: Q01DX011 (ip), vehicle: carboxymethylcellulose (CMC), higher = larger tumour
structure (smiles),measurement,setting,value
CCCCCC/C=C/C#CCCCCCCCC(=O)O,T/C,"endpoint: median survival time, dose: 18.75 mg/kg/injection, schedule: Q01DX009 (ip), vehicle: Klucel (hydroxypropylcellulose) (HPC), higher = longer survival",97 % of control
same,T/C,"endpoint: median survival time, dose: 37.5 mg/kg/injection, schedule: Q01DX009 (ip), vehicle: Klucel (hydroxypropylcellulose) (HPC), higher = longer survival",90 % of control and 91 % of control
same,T/C,"endpoint: median survival time, dose: 75.0 mg/kg/injection, schedule: Q01DX009 (ip), vehicle: Klucel (hydroxypropylcellulose) (HPC), higher = longer survival",102 % of control and 111 % of control
Nc1n[nH]c(N)n1,T/C,"endpoint: median survival time, dose: 100.0 mg/kg/injection, schedule: Q01DX009 (ip), vehicle: saline with Tween-80, higher = longer survival",113 % of control
same,T/C,"endpoint: median survival time, dose: 200.0 mg/kg/injection, schedule: Q01DX009 (ip), vehicle: saline with Tween-80, higher = longer survival",102 % of control
same,T/C,"endpoint: median survival time, dose: 400.0 mg/kg/injection, schedule: Q01DX009 (ip), vehicle: saline with Tween-80, higher = longer survival",95 % of control
same,T/C,"endpoint: median survival time, dose: 800.0 mg/kg/injection, schedule: Q01DX009 (ip), vehicle: saline with Tween-80, higher = longer survival",110 % of control
same,T/C,"endpoint: median tumor weight (est.), dose: 100.0 mg/kg/injection, schedule: Q01DX009 (ip), vehicle: saline with Tween-80, higher = larger tumour",100 % of control
same,T/C,"endpoint: median tumor weight (est.), dose: 200.0 mg/kg/injection, schedule: Q01DX009 (ip), vehicle: saline with Tween-80, higher = larger tumour",103 % of control
same,T/C,"endpoint: median tumor weight (est.), dose: 400.0 mg/kg/injection, schedule: Q01DX009 (ip), vehicle: saline with Tween-80, higher = larger tumour",97 % of control
same,T/C,"endpoint: median tumor weight (est.), dose: 800.0 mg/kg/injection, schedule: Q01DX009 (ip), vehicle: saline with Tween-80, higher = larger tumour",91 % of control
CC1=C(/C=C/C(C)=C/C=C/C(C)=C/C(=O)O)C(C)(C)CCC1,T/C,"endpoint: median survival time, dose: 6.25 mg/kg/injection, schedule: Q01DX005 (ip), vehicle: saline with Tween-80, higher = longer survival",109 % of control
same,T/C,"endpoint: median survival time, dose: 8.0 mg/kg/injection, schedule: Q01DX009 (ip), vehicle: saline with Tween-80, higher = longer survival",102 % of control
same,T/C,"endpoint: median survival time, dose: 16.0 mg/kg/injection, schedule: Q01DX009 (ip), vehicle: saline with Tween-80, higher = longer survival",93 % of control
same,T/C,"endpoint: median survival time, dose: 32.0 mg/kg/injection, schedule: Q01DX009 (ip), vehicle: saline with Tween-80, higher = longer survival",93 % of control
O=NN(CCCl)C(=O)Nc1cc2c3ccccc3ccc2c2ccccc12,T/C,"endpoint: median survival time, dose: 3.12 mg/kg/injection, schedule: Q01DX009 (ip), vehicle: Klucel (hydroxypropylcellulose) (HPC), higher = longer survival",95 % of control
same,T/C,"endpoint: median survival time, dose: 6.25 mg/kg/injection, schedule: Q01DX009 (ip), vehicle: Klucel (hydroxypropylcellulose) (HPC), higher = longer survival",100 % of control
same,T/C,"endpoint: median survival time, dose: 12.5 mg/kg/injection, schedule: Q01DX009 (ip), vehicle: Klucel (hydroxypropylcellulose) (HPC), higher = longer survival",96 % of control
OCC(Br)CBr (stereo unspecified),T/C,"endpoint: mean tumor weight, dose: 37.0 mg/kg/injection, schedule: Q01DX011 (ip), vehicle: other, higher = larger tumour",97 % of control
same,T/C,"endpoint: mean tumor weight, dose: 55.0 mg/kg/injection, schedule: Q01DX011 (ip), vehicle: other, higher = larger tumour",66 % of control
CC(C)(c1ccccc1)c1ccc(O)cc1,T/C,"endpoint: mean tumor weight, dose: 45.0 mg/kg/injection, schedule: Q01DX011 (ip), vehicle: carboxymethylcellulose (CMC), higher = larger tumour",82 % of control
same,T/C,"endpoint: mean tumor weight, dose: 65.0 mg/kg/injection, schedule: Q01DX011 (ip), vehicle: carboxymethylcellulose (CMC), higher = larger tumour",60 % of control
CC(C)C1C=C2CCC3C(C)(C(=O)O)CCCC3(C)C2CC1 (stereo unspecified),T/C,[1],89 % of control
same,T/C,[2],38 % of control
OCC1=CCN2CC[C@@H](O)[C@@H]12,T/C,"endpoint: mean tumor weight, dose: 25.0 mg/kg/injection, schedule: Q01DX011 (ip), vehicle: carboxymethylcellulose (CMC), higher = larger tumour",122 % of control
same,T/C,[3],117 % of control
same,T/C,[1],111 % of control
same,T/C,[2],106 % of control
Nc1ncn(C2OC(CO)C(O)C2O)c(=O)n1 (stereo unspecified),T/C,"endpoint: median survival time, dose: 0.75 mg/kg/injection, schedule: Q01DX009 (ip), vehicle: saline, higher = longer survival",105 % of control and 112 % of control and 121 % of control
same,T/C,"endpoint: median survival time, dose: 1.5 mg/kg/injection, schedule: Q01DX009 (ip), vehicle: saline, higher = longer survival",121 % of control and 124 % of control
same,T/C,"endpoint: median survival time, dose: 3.0 mg/kg/injection, schedule: Q01DX009 (ip), vehicle: saline, higher = longer survival",105 % of control and 110 % of control
same,T/C,"endpoint: median tumor weight (est.), dose: 0.75 mg/kg/injection, schedule: Q01DX009 (ip), vehicle: saline, higher = larger tumour",75 % of control
same,T/C,"endpoint: median tumor weight (est.), dose: 1.5 mg/kg/injection, schedule: Q01DX009 (ip), vehicle: saline, higher = larger tumour",73 % of control
same,T/C,"endpoint: median tumor weight (est.), dose: 3.0 mg/kg/injection, schedule: Q01DX009 (ip), vehicle: saline, higher = larger tumour",59 % of control
c1ccc2cc3c(cc2c1)Cn1c-3nc2ccccc21,T/C,[3],64 % of control
same,T/C,"endpoint: mean tumor weight, dose: 55.0 mg/kg/injection, schedule: Q01DX011 (ip), vehicle: carboxymethylcellulose (CMC), higher = larger tumour",33 % of control and 48 % of control
same,T/C,"endpoint: mean tumor weight, dose: 80.0 mg/kg/injection, schedule: Q01DX011 (ip), vehicle: carboxymethylcellulose (CMC), higher = larger tumour",52 % of control
same,T/C,[1],23 % of control
same,T/C,"endpoint: mean tumor weight, dose: 120.0 mg/kg/injection, schedule: Q01DX011 (ip), vehicle: carboxymethylcellulose (CMC), higher = larger tumour",26 % of control
same,T/C,"endpoint: mean tumor weight, dose: 180.0 mg/kg/injection, schedule: Q01DX011 (ip), vehicle: carboxymethylcellulose (CMC), higher = larger tumour",34 % of control
same,T/C,[2],37 % of control
same,T/C,"endpoint: mean tumor weight, dose: 400.0 mg/kg/injection, schedule: Q01DX011 (ip), vehicle: carboxymethylcellulose (CMC), higher = larger tumour",38 % of control
CC(C)([NH-])CO.CC(C)([NH-])CO.[Cl][Cd][Cl],T/C,"endpoint: mean tumor weight, dose: 1.0 mg/kg/injection, schedule: Q01DX011 (ip), vehicle: other, higher = larger tumour",122 % of control
same,T/C,"endpoint: mean tumor weight, dose: 2.0 mg/kg/injection, schedule: Q01DX011 (ip), vehicle: other, higher = larger tumour",77 % of control
same,T/C,"endpoint: mean tumor weight, dose: 4.0 mg/kg/injection, schedule: Q01DX011 (ip), vehicle: other, higher = larger tumour",75 % of control
same,T/C,"endpoint: mean tumor weight, dose: 8.0 mg/kg/injection, schedule: Q01DX011 (ip), vehicle: other, higher = larger tumour",97 % of control
[N-]=[N+]=CC(=O)NCC(=O)NN,T/C,"endpoint: mean tumor weight, dose: 125.0 mg/kg/injection, schedule: Q01DX011 (ip), vehicle: water, higher = larger tumour",95 % of control
same,T/C,"endpoint: mean tumor weight, dose: 250.0 mg/kg/injection, schedule: Q01DX011 (ip), vehicle: water, higher = larger tumour",66 % of control
same,T/C,"endpoint: mean tumor weight, dose: 500.0 mg/kg/injection, schedule: Q01DX011 (ip), vehicle: water, higher = larger tumour",40 % of control
CCOc1ccccc1C1N(Cc2ccc(OC)cc2)CCCN1Cc1ccc(OC)cc1,T/C,"endpoint: mean tumor weight, dose: 74.0 mg/kg/injection, schedule: Q01DX011 (ip), vehicle: other, higher = larger tumour",103 % of control
same,T/C,"endpoint: mean tumor weight, dose: 111.0 mg/kg/injection, schedule: Q01DX011 (ip), vehicle: other, higher = larger tumour",93 % of control
same,T/C,"endpoint: mean tumor weight, dose: 166.0 mg/kg/injection, schedule: Q01DX011 (ip), vehicle: other, higher = larger tumour",93 % of control
CNC1C(OC2C(OC3C(O)C(O)C(N=C(N)N)C(O)C3N=C(N)N)OC(C)C2(O)C=O)OC(CO)C(O)C1O (stereo unspecified),T/C,"endpoint: median survival time, dose: 50.0 mg/kg/injection, schedule: Q01DX009 (ip), vehicle: water, higher = longer survival",95 % of control
same,T/C,"endpoint: median survival time, dose: 100.0 mg/kg/injection, schedule: Q01DX009 (ip), vehicle: water, higher = longer survival",102 % of control
same,T/C,"endpoint: median survival time, dose: 200.0 mg/kg/injection, schedule: Q01DX009 (ip), vehicle: water, higher = longer survival",105 % of control
CCC[C@H]1CCCCN1,T/C,"endpoint: mean tumor weight, dose: 25.0 mg/kg/injection, schedule: Q01DX011 (ip), vehicle: saline, higher = larger tumour",88 % of control
COc1cc(C(=O)OC2CC34CCNC35CC(OC5(OC)C2O)c2cc3c(cc24)OCO3)ccc1O (stereo unspecified),T/C,"endpoint: mean tumor weight, dose: 0.25 mg/kg/injection, schedule: Q01DX011 (ip), vehicle: carboxymethylcellulose (CMC), higher = larger tumour",41 % of control
same,T/C,"endpoint: mean tumor weight, dose: 0.5 mg/kg/injection, schedule: Q01DX011 (ip), vehicle: carboxymethylcellulose (CMC), higher = larger tumour",50 % of control
same,T/C,"endpoint: mean tumor weight, dose: 1.0 mg/kg/injection, schedule: Q01DX011 (ip), vehicle: carboxymethylcellulose (CMC), higher = larger tumour",87 % of control
CC/C(=C(\CC)c1ccc(OC)cc1)c1ccc(O)cc1,T/C,"endpoint: mean tumor weight, dose: 15.0 mg/kg/injection, schedule: Q01DX011 (sc), vehicle: steriod suspending solution, higher = larger tumour",54 % of control
same,T/C,"endpoint: mean tumor weight, dose: 30.0 mg/kg/injection, schedule: Q01DX011 (sc), vehicle: steriod suspending solution, higher = larger tumour",35 % of control
same,T/C,"endpoint: mean tumor weight, dose: 60.0 mg/kg/injection, schedule: Q01DX011 (sc), vehicle: steriod suspending solution, higher = larger tumour",23 % of control
same,T/C,"endpoint: mean tumor weight, dose: 100.0 mg/kg/injection, schedule: Q01DX011 (sc), vehicle: steriod suspending solution, higher = larger tumour",7 % of control
same,T/C,"endpoint: mean tumor weight, dose: 120.0 mg/kg/injection, schedule: Q01DX011 (sc), vehicle: steriod suspending solution, higher = larger tumour",31 % of control and 36 % of control
same,T/C,"endpoint: mean tumor weight, dose: 200.0 mg/kg/injection, schedule: Q01DX011 (sc), vehicle: steriod suspending solution, higher = larger tumour",22 % of control
same,T/C,"endpoint: mean tumor weight, dose: 240.0 mg/kg/injection, schedule: Q01DX011 (sc), vehicle: steriod suspending solution, higher = larger tumour",31 % of control
same,T/C,"endpoint: mean tumor weight, dose: 300.0 mg/kg/injection, schedule: Q01DX011 (sc), vehicle: steriod suspending solution, higher = larger tumour",22 % of control
COc1cc(N(CCCl)CCCl)ccc1NC(=O)c1ccccc1,T/C,"endpoint: mean tumor weight, dose: 12.5 mg/kg/injection, schedule: Q01DX011 (ip), vehicle: Klucel (hydroxypropylcellulose) (HPC), higher = larger tumour",68 % of control
same,T/C,"endpoint: mean tumor weight, dose: 25.0 mg/kg/injection, schedule: Q01DX011 (ip), vehicle: Klucel (hydroxypropylcellulose) (HPC), higher = larger tumour",48 % of control
O=C(NP(=O)(N1CC1)N1CC1)c1cc(I)ccc1I,T/C,"endpoint: median survival time, dose: 1.0 mg/kg/injection, schedule: Q02DX009 (ip), vehicle: saline with Tween-80, higher = longer survival",110 % of control
same,T/C,"endpoint: median survival time, dose: 2.0 mg/kg/injection, schedule: Q02DX009 (ip), vehicle: saline with Tween-80, higher = longer survival",112 % of control
same,T/C,"endpoint: median survival time, dose: 4.0 mg/kg/injection, schedule: Q02DX009 (ip), vehicle: saline with Tween-80, higher = longer survival",117 % of control
same,T/C,"endpoint: median survival time, dose: 8.0 mg/kg/injection, schedule: Q02DX009 (ip), vehicle: saline with Tween-80, higher = longer survival",117 % of control
same,T/C,"endpoint: median survival time, dose: 16.0 mg/kg/injection, schedule: Q02DX009 (ip), vehicle: saline with Tween-80, higher = longer survival",106 % of control
same,T/C,"endpoint: median survival time, dose: 32.0 mg/kg/injection, schedule: Q02DX009 (ip), vehicle: saline with Tween-80, higher = longer survival",102 % of control
same,T/C,"endpoint: median survival time, dose: 64.0 mg/kg/injection, schedule: Q02DX009 (ip), vehicle: saline with Tween-80, higher = longer survival",98 % of control
